Source: article PMC11050443, “Discovery of Strong 3-Nitro-2-Phenyl-2H-Chromene Analogues as Antitrypanosomal Agents and Inhibitors of Trypanosoma cruzi Glucokinase” (International Journal of Molecular Sciences, 2024)
Read-outs that look alike come from different tables or passages of the source.

Tests used:
[1] = biological target: T1, TcGlcK (Trypanosoma cruzi glucokinase) (Trypanosoma cruzi, UniProt Q4E4E1); experiment: TcGlcK primary screening assay (LmG6PDH-coupled, Dixon plots); format: biochemical; conditions: for Ki: Dixon plots, 0.4, 0.6, 0.8 mM D-glucose, N = 1 unless marked, N = 3 for compounds 1, 4, 9, 11; for Mode of TcGlcK inhibition: Cornish-Bowden method, Dixon plots of [D-Glc]/V versus inhibitor concentration
T1 construct: made in house; host or cells: Escherichia coli BL21(DE3)
T1 sequence (Q4E4E1 1-376): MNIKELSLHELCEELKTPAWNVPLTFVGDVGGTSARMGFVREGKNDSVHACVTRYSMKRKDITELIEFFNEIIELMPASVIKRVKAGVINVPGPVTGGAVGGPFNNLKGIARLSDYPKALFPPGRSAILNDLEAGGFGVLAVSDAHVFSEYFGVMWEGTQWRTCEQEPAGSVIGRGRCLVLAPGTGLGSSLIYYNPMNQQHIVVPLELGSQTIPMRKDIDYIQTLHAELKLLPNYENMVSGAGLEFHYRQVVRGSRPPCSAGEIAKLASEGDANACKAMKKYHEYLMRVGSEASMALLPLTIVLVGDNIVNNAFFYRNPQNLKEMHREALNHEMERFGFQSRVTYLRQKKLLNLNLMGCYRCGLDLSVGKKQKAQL
Protocol: A primary screening assay was carried out for TcGlcK with the 3-nitro-2-phenyl-2H-chromene analogues. The data was subsequently processed for respective Ki values in order to assess enzyme inhibition. […] The primary screening assay was performed with the substrate D-glucose in various concentrations of 0.4 mM, 0.6 mM, and 0.8 mM to produce Dixon plots with different slopes. Each of the 3-nitro-2-phenyl-2H-chromene analogues were originally prepared at a working concentration of 1.0 mM and were dissolved in 100% DMSO. The final assay concentrations of the analogue compounds (inhibitors) ranged from 0.0–10.0 μM. The analogue compounds were pre-incubated with the enzyme system a minimum of 10 min prior to the initiation of the assay. The enzymatic reaction was carried out at room temperature (22 °C; temperature optimum) using ATP to initiate the reaction, and termination was performed after 120 s (time optimum) by stopping the reaction with the addition of an EDTA (pH 8.0) solution, to a final concentration of 100 mM. TcGlcK enzyme activity was analyzed for the production of NADPH. Each completed reaction mixture was added into a black, round-bottom microplate and scanned by a VANTAstar-F multi-mode microplate reader (BMG LABTECH, Inc.; Cary, NC, USA). The instrument was set to fluorescence mode and the wavelengths (λex = 340 nm; λem = 485 nm) were set to observe the relative fluorescence units of NADPH [40]. The enzyme-inhibition kinetics Ki value determination and the mode of inhibition was determined using the Cornish–Bowden Dixon Plot analysis method.

[2] = biological target: T2, LmG6PDH (Leuconostoc mesenteroides glucose-6-phosphate dehydrogenase) (Leuconostoc mesenteroides, UniProt P11411); experiment: Confirmatory assay on the LmG6PDH enzyme-coupled system; format: biochemical; conditions: for inhibition at 20 µM: read-out: LmG6PDH Inh20; for LmG6PDH inhibitory effect (in words): 20 µM compound
T2 construct: purchased Worthington Biochemical Corporation
Protocol: Two criteria were examined in order to certify on-target confirmed hits: (a) the assessment of potential inhibition to the LmG6PDH enzyme-coupled system, and (b) the precision of the assay (per inhibitor), performed in quadruplicate (N = 4). Compounds were tested in quadruplicate in a black, round-bottom 96-well microplate in which wells were filled with a buffered solution (50 mM triethanolamine, 150 mM NaCl) amounting to a total volume of 206.5 μL that contained the following reagents at final assay concentrations: LmG6PDH (6.1 μg/mL), NADP^+ (0.54 mM), ATP (0.54 mM), MgCl2 (6.9 mM), DMSO (1.0% by vol.), D-glucose-6-phosphate (0.80 mM), and a 3-nitro-2-phenyl-2H-chromene analogue (20.0 μM). The analogue compounds were pre-incubated with the enzyme system a minimum of 10 min prior to the initiation of the assay. The enzymatic reactions were initiated and terminated similarly as described in the TcGlcK primary screen (vide supra). The production of NADPH was monitored using the VANTAstar-F multi-mode microplate reader set to fluorescent mode, λex = 340 nm and λem = 485 nm, over a 120-s timeframe.

[3] = system: T. brucei brucei (427 strain) bloodstream form; experiment: In vitro T. brucei biological assay (Alamar blue); format: cell-based, Trypanosoma brucei brucei; conditions: for anti-T. brucei activity (in words): T. brucei brucei 427 strain bloodstream form
Protocol: The in vitro cell culture preparation of T. brucei brucei (427 strain) trypomastigote bloodstream form followed by treatment with inhibitors has recently been described by Ajayi and colleagues. The 3-nitro-2-phenyl-2H-chromene compounds (inhibitors) that were prepared as 10.0 mM stock solutions in 100% DMSO were thawed from −80 °C to room temperature. HMI-9 medium [Iscove’s modification of DMEM supplemented with 10% FBS, 10% serum plus (SAFC), 0.05 mM bathocuproinesulfonate, 1.5 mM L-cysteine, 1.0 mM hypoxanthine, 0.2 mM β-mercaptoethanol, 0.16 mM thymidine, and 1.0 mM pyruvate] was prepared. In a sterile, round-bottom, 96-well microplate, 100 μL of HMI-9 medium was added to each well. A volume of 2.0 μL of a given compound plus a volume of 98.0 μL of fresh media were both added to a well in the first row of the 96-well microplate; this was performed for each compound to be tested. Solutions were mixed with a micropipette followed by transfer of 100 μL to the next row and repeated. The compound solutions ranged from 0.0781–10.0 μM and this was accomplished by serial dilution using a 2-fold dilution. T. brucei parasites were centrifuged for 10 min at 900× g (without centrifuge breaks). The media was carefully discarded by aspiration and the parasites were resuspended in warm media. Parasites were counted in a Newbauer chamber. Afterwards, the parasites were diluted to 50,000 cells/mL (5000 cells/well) and 100 μL was added to each well of the 96-well microplate using a multichannel pipette. After 48 h, 20.0 μL of Alamar blue was added to each well and the plate was placed into an incubator for 4 h at 37 °C. Fluorescence readings were measured using a Victor Nivo multimode microplate reader (PerkinElmer, Inc.; Shelton, CT, USA) at λex = 530 nm and λem = 590 nm. All measurements were performed in triplicate and IC50 determinations for percent growth inhibition were carried out using GraphPad Prism 10.0. The detergent SDS was used as a positive control and its final solution concentration was 0.5%. Three control experiments were performed, as follows: (a) parasites alone, (b) parasites and 0.5% SDS, and (c) the medium alone.

[4] = percentage of inhibition at 20 µM compound in comparison to controls, N = 4
[5] = Trypanosoma brucei, 48 h, T. brucei brucei 427 strain bloodstream form growth inhibition, N = 3
[6] = T. brucei brucei 427 strain bloodstream form growth inhibition, 48 h, N = 3
[7] = Trypanosoma brucei, bound stated in the text for the top seven anti-T. brucei compounds

T2 sequence (P11411 whole entry): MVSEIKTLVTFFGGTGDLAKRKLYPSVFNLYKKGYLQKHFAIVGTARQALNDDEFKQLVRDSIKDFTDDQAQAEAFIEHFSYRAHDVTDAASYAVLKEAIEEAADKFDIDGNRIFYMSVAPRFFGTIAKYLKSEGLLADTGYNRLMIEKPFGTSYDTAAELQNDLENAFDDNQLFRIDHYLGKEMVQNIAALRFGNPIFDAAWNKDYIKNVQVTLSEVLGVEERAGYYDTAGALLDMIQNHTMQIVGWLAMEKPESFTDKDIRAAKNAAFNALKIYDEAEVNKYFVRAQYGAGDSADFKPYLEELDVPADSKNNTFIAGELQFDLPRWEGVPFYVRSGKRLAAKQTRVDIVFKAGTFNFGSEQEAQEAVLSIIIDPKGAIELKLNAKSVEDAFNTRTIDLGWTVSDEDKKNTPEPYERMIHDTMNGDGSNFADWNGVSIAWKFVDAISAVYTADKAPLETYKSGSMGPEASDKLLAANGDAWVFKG

Row | SMILES | Ki [1] [nM] | inhibition at 20 µM [2, 4] [%] | IC50 [3, 5] [nM] | anti-T. brucei activity (in words) [3] | IC50 [3, 6] [nM] | IC50 [3, 7] [nM] | inhibition at 20 µM [2] [%] | Mode of TcGlcK inhibition [1] | LmG6PDH inhibitory effect (in words) ([2]; N = 4)
1 | CCOc1ccc(C2Oc3ccc(Br)cc3C=C2[N+](=O)[O-])cc1OCC (centres unmarked) [Compound 2, 6-Bromo-2-(3,4-diethoxyphenyl)-3-nitro-2H -chromene] | 46000 | 0 | 1190 ± 40 |  |  |  |  |  | 
2 | O=[N+]([O-])C1=Cc2cc(Br)cc(Br)c2OC1c1c(Cl)cccc1Cl (centres unmarked) [Compound 7, 2-(2,6-Dichlorophenyl)-6,8-dibromo-3-nitro-2H -chromene] | 50000 | 0 | 900 ± 330 | nanomolar potency |  |  |  |  | 
3 | COc1ccc(C2Oc3c(Br)cc(Br)cc3C=C2[N+](=O)[O-])cc1OC (centres unmarked) [Compound 5, 6,8-Dibromo-2-(3,4-dimethoxyphenyl)-3-nitro-2H -chromene] | 35000 | 0 | < 550 | nanomolar potency | 420 ± 40 | < 750 |  |  | 
4 | CCOc1ccc(C2Oc3ccccc3C=C2[N+](=O)[O-])cc1OCC (centres unmarked) [Compound 10, 2-(3,4-Diethoxyphenyl)-3-nitro-2H -chromene] | 23000 |  | 1120 ± 300 |  |  |  | 0 |  | 
5 | COc1ccc(C2Oc3c(cc(Br)cc3OC)C=C2[N+](=O)[O-])cc1OC (centres unmarked) [Compound 3, 6-Bromo-2-(3,4-dimethoxyphenyl)-8-methoxy-3-nitro-2H -chromene] | 24000 | 0 | < 550 | nanomolar potency | 520 ± 50 | < 750 |  |  | 
6 | O=[N+]([O-])C1=Cc2ccccc2OC1c1c(Cl)cccc1Cl (centres unmarked) [Compound 13, 2-(2,6-Dichlorophenyl)-3-nitro-2H -chromene] | 25000 | 0 | 1280 ± 100 |  |  |  |  |  | 
7 | CCOc1ccc(C2Oc3c(Cl)cc(Cl)cc3C=C2[N+](=O)[O-])cc1OCC (centres unmarked) [Compound 9, 6,8-Dichloro-2-(3,4-diethoxyphenyl)-3-nitro-2H -chromene] | 12300 ± 5500 | 10.1 ± 0.1 | 660 ± 50 | nanomolar potency |  | < 750 |  | mixed-mode inhibition | did not observe any significant LmG6PDH inhibitory effects
8 | CCOc1ccc(C2Oc3c(cc(Br)cc3OC)C=C2[N+](=O)[O-])cc1OC (centres unmarked) [Compound 8, 6-Bromo-2-(4-ethoxy-3-methoxyphenyl)-8-methoxy-3-nitro-2H -chromene] | 30000 | 0 | 740 ± 140 | nanomolar potency |  | < 750 |  |  | 
9 | CCOc1ccc(C2Oc3ccc(Br)cc3C=C2[N+](=O)[O-])cc1OC (centres unmarked) [Compound 1, 6-Bromo-2-(4-ethoxy-3-methoxyphenyl)-3-nitro-2H -chromene] | 6200 ± 1200 | 15.4 ± 0.1 | 610 ± 30 | nanomolar potency |  | < 750 |  | uncompetitive inhibition | did not observe any significant LmG6PDH inhibitory effects
10 | CCOc1ccc(C2Oc3c(Br)cc(Br)cc3C=C2[N+](=O)[O-])cc1OC (centres unmarked) [Compound 6, 6,8-Dibromo-2-(4-ethoxy-3-methoxyphenyl)-3-nitro-2H -chromene] | 6100 | 16.1 | < 550 | nanomolar potency | 360 ± 60 | < 750 |  |  | did not observe any significant LmG6PDH inhibitory effects
11 | O=[N+]([O-])C1=Cc2cc(Br)ccc2OC1c1ccccc1Cl (centres unmarked) [Compound 11, 6-Bromo-2-(2-chlorophenyl)-3-nitro-2H -chromene] | 20000 ± 4300 | 15 ± 0.1 | 860 ± 200 | nanomolar potency |  |  |  | noncompetitive inhibition | did not observe any significant LmG6PDH inhibitory effects
12 | COc1ccc(C2Oc3ccc(Br)cc3C=C2[N+](=O)[O-])cc1OC (centres unmarked) [Compound 4, 6-Bromo-2-(3,4-dimethoxyphenyl)-3-nitro-2H -chromene] | 5500 ± 1800 | 12.1 | < 550 | nanomolar potency | 440 ± 30 | < 750 |  | mixed-mode inhibition | did not observe any significant LmG6PDH inhibitory effects
